Measurements as given in paper PMC9896555, “Cyclic Acetals as Novel Long-Lasting Mosquito Repellents” (Journal of Agricultural and Food Chemistry, 2023).
Where “and” joins values, the source holds several entries; their conditions need not be identical. Identical values can stand only once. Entries after “also recorded” stand apart in the source; their conditions may differ. Like-named read-outs stand apart in the source and are kept apart here.

How the values were obtained:
[1] = test system: Aedes albopictus; assay: Protection time at 0.17 mg/cm2, human-bait technique; format: in vivo; conditions: for pest or weed control at 0.17 mg/cm2, 0.17 mg/cm2: Aedes albopictus, topical, read-out: Protection time PE%; for Average PT >95% (% coefficient of variation) / Estimated 100% PT (complete protection time, mean±SE): at the dose of 0.17mg/cm2; for Estimated 100% PT (complete protection time, mean±SE): Kaplan–Meier estimate; for Protection time (95% protection): dose of 0.17 mg/cm^2, tests ended after 8 h
Experimental: To evaluate the protection time of derivatives, the PE % was measured with 100 μL of a 5% ethanol solution, corresponding to 0.17 mg/cm^2 of exposed skin, under the same laboratory conditions. Mosquito-exposed skin was treated with 100 μL of ethanol, as the negative hand control. For each volunteer (up to 8), the test was performed every hour, up to 8 h from the application. The protection time of DEET and Icaridin was measured under the same conditions. Since these trials were run in parallel with those aimed to profile the cytotoxicity of the compounds (paragraph 2.6), we interrupted the experiments for those compounds showing to have higher cytotoxicity than Icaridin and DEET as soon as the results were available. For this reason, the number of volunteers differs among the compounds.
The average time until protection which was higher than 95% protection time was considered for each compound. Moreover, for the compounds tested on at least three volunteers, the complete (100%) protection time was also estimated (SPSS 28.01.0) using the Kaplan–Meier survivor function procedure.[22]

[2] = test system: Caco-2 monolayer; assay: Transwell permeation test; format: in vitro ADME; conditions: 82 μg/mL apical, 3 h
Experimental: To evaluate the possibility of absorption after topical application, we tested the permeation through a Caco-2 monolayer for those compounds best performing in terms of protection time and cytotoxicity. The colorectal adenocarcinoma cell line Caco-2 was purchased from ATCC and cultured in DMEM with 20% FBS, L-glutamine (2 mM), and 1% penicillin–streptomycin 100 U/mL (Thermo Fisher Scientific, Rodano, Milan, Italy) in 5% CO2 at 37 °C.
For the permeation studies, Caco-2 cells, a model of epithelial cells, were seeded into 12-well PET Transwell plates (1.13 cm^2 growth surface area and pore size 0.4 μm, Greiner Bio-One, Milan, Italy) at a density of 2 × 10^5 cells/cm^2 and grown for 21 days to form a confluent monolayer. The integrity of the cellular barrier was then assessed using Lucifer Yellow (LY) permeability test, before the experiments.[33]
After washing, the monolayers were preincubated for 20 min at 37 °C with 0.5 and 1.5 mL of the incubation medium, HBSS/HEPES 25 mM in the apical and basolateral sides, respectively. […] At the end of the experiment, the layer integrity was re-evaluated. […]
One hundred microliters of the collected media was extracted in 100 μL of heptane by vortexing the vial for 2 min; 70 μL of this solution was recovered; and 1 μL was injected in a 7820 GC system-5977B MSD system and analyzed under the same conditions reported in paragraph 2.2. […]

[3] = test system: RAW 264.7; assay: Immunogenicity on murine macrophages (nitric oxide release); format: cell-based; conditions: RAW264.7, 82 μg/mL, 6 h
Experimental: Cells were cultured in DMEM, with 10% FBS, 1% L-glutamine (2 mM), and 1% penicillin–streptomycin 100 U/mL at 37 °C in an atmosphere containing 5% CO2. RAW264.7 were seeded (1 × 10^5 cells/well) and exposed to five derivatives or Icaridin, at 82 μg/mL or to LPS (1 μg/mL) as a positive control, for 3 and 6 h. After that, nitric oxide release was determined in the culture media as previously described.[32] Experiments were performed in triplicate.

[4] = test system: HaCaT cells; assay: Cytotoxicity on human keratinocytes (MTS); format: cell-based; conditions: 82 μg/mL, 24 h
Experimental: HaCaT cells were cultured in 5% CO2 at 37 °C in Dulbecco’s modified Eagle’s medium (DMEM), supplemented with 10% fetal bovine serum (FBS), 1% L-glutamine ([…]), and 1% penicillin–streptomycin (Thermo Fisher Scientific, Rodano, Milan, Italy). […] Experiments were performed in triplicate.

[5] = test system: Aedes albopictus; assay: Effective dose / protection efficacy, human-bait technique; format: in vivo; conditions: for pest or weed control at 0.081 µg/cm2, 0.081 µg/cm2 / pest or weed control at 0.17 µg/cm2, 0.17 µg/cm2 / pest or weed control at 0.33 µg/cm2, 0.33 µg/cm2 / pest or weed control at 0.5 µg/cm2, 0.5 µg/cm2 / pest or weed control at 0.83 µg/cm2, 0.83 µg/cm2 / pest or weed control at 1.7 µg/cm2, 1.7 µg/cm2 / pest or weed control at 8.3 µg/cm2, 8.3 µg/cm2 / pest or weed control at 16.7 µg/cm2, 16.7 µg/cm2 / pest or weed control at 83.3 µg/cm2, 83.3 µg/cm2: Aedes albopictus, topical, read-out: Protection efficacy PE%; for Protection efficacy (dose to obtain complete protection (100%) from bite attempts): applied on skin of volunteers, 3 min exposure
Experimental: The repellence of DEET, Icaridin (both supplied by Istituto Biochimico VEBI s.r.l.), acetals, and the synthesized hydroxyacetals was evaluated againstAedes albopictususing the human-bait technique (to simulate the condition of human skin on which repellents will be applied).[22]A. albopictuswas reared and tested at 26 ± 2 °C, ≥60 ± 10% relative humidity (RH), and at 14:10 h light/dark photoperiod, within Plexiglas cylindrical laboratory cages (35 cm diameter, 60 cm length) with one end closed by a net. During the tests, cages contained ≈150 nulliparous, 4–7 day-old, nonblood-fed females. For each compound to be tested, up to six volunteers participated in the trial.
The study was approved by the Regional Ethics Committee for Clinical Trials of Tuscany Region with the registered number 20383. Volunteers agreed to take part in the experiments following informed consent; only volunteers non-allergic to mosquito bites participated in the trials. On the day of the bioassay, they had no contact with lotions, perfumes, oils, or perfumed soaps. They wore latex surgical gloves, in which a dorsal square area of 30 cm^2 was cut open. Mosquito-exposed skin was treated with 50 μL of ethanol, as the negative hand control. The other hand was treated with 50 μL of the tested compounds in ethanol solution (dosages corresponding to 0.081, 0.17, 0.33, 0.5, 0.83, 1.7, 8.3, 16.7, and 83.3 μg/cm^2). Both hands were presented in the same test cage. The number of probing mosquitoes in a 3 min exposure period was recorded. During each test, the control and the treated hand were presented interchanged to verify the mosquitoes’ readiness to bite. Trials were considered valid only if at least 30 mosquitoes performed probing behavior on the control hand before each repellent dosage was tested. The protection efficacy (PE %) obtained from all replicates was calculated, according to the WHO guidelines[31] using this formula [drawing 1]
To evaluate the protection efficacy, volunteers applied increasing doses of the compounds to the skin on the back of their hands (30 cm^2, while the rest was covered with a rubber glove) and counted the number of mosquitoes attempting to bite; the solvent only was used on the control hand. The protection (percentage of repelled mosquitoes) was calculated as reported in the Material and Methods section.

| SMILES | pest or weed control at 0.17 mg/cm2, 0.17 mg/cm2 ([1]; 0.17mg/cm2, 1 h) [%] | pest or weed control at 0.17 mg/cm2, 0.17 mg/cm2 ([1]; 0.17mg/cm2, 2 h) [%] | pest or weed control at 0.17 mg/cm2, 0.17 mg/cm2 ([1]; 0.17mg/cm2, 3 h) [%] | pest or weed control at 0.17 mg/cm2, 0.17 mg/cm2 ([1]; 0.17mg/cm2, 4 h) [%] | pest or weed control at 0.17 mg/cm2, 0.17 mg/cm2 ([1]; 0.17mg/cm2, 5 h) [%] | pest or weed control at 0.17 mg/cm2, 0.17 mg/cm2 ([1]; 0.17mg/cm2, 6 h) [%] | pest or weed control at 0.17 mg/cm2, 0.17 mg/cm2 ([1]; 0.17mg/cm2, 7 h) [%] | pest or weed control at 0.17 mg/cm2, 0.17 mg/cm2 ([1]; 0.17mg/cm2, 8 h) [%] | Average PT >95% (% coefficient of variation) [1] | Estimated 100% PT (complete protection time, mean±SE) [1] [min] | Protection time (95% protection) [1] [h] | survival of keratocytes [4] | pest or weed control at 0.081 µg/cm2, 0.081 µg/cm2 [5] [%] | pest or weed control at 0.17 µg/cm2, 0.17 µg/cm2 [5] [%] | pest or weed control at 0.33 µg/cm2, 0.33 µg/cm2 [5] [%] | pest or weed control at 0.5 µg/cm2, 0.5 µg/cm2 [5] [%] | pest or weed control at 0.83 µg/cm2, 0.83 µg/cm2 [5] [%] | pest or weed control at 1.7 µg/cm2, 1.7 µg/cm2 [5] [%] | pest or weed control at 8.3 µg/cm2, 8.3 µg/cm2 [5] [%] | pest or weed control at 16.7 µg/cm2, 16.7 µg/cm2 [5] [%] | other results |
| --- | --- | --- | --- | --- | --- | --- | --- | --- | --- | --- | --- | --- | --- | --- | --- | --- | --- | --- | --- | --- | --- |
| CC(C)CC1(CC(C)C)OCC(C)(CO)CO1 [17b] | 100 | 98.7 | 99.1 | 100 | 96.8 | 93.6 | 95.6 | 96.5 | 480 (5.0) min | 300 ± 94 | 8 | > 88% and 92% | 8.33 | 27.8 | 50.8 | 44.4 | 58.1 | 94.8 | 100 | 100 | permeability value lower compared to Icaridin [2]: 17%; immunogenicity (nitric oxide release / nitrite production), in words [3]: did not exhibit immunogenicity; also recorded: indistinguishable from the negative control; pest or weed control at 83.3 µg/cm2, 83.3 µg/cm2 [5]: 100%; Protection efficacy (dose to obtain complete protection (100%) from bite attempts) [5]: 8.3 μg/cm^2 |
| CC1(CO)COC2(CCCCC2)OC1 [6b] | 100 | 99.1 | 100 | 100 | 99.4 | 90.8 | 97.3 | 95.1 | 480 (3.3) min | 375 ± 89 | 8 | > 88% | 48.4 | 62.7 | 77 | 64.9 | 100 | 100 | 100 | 100 | pest or weed control at 83.3 µg/cm2, 83.3 µg/cm2 [5]: 100%; 100% PE ([5]; Table S1): 0.83 µg/cm2; Protection efficacy (dose to obtain complete protection (100%) from bite attempts) [5]: 0.83 μg/cm^2 |
